The values below come from patent publication US20250154152A1, “INHIBITORS OF NAEGLERIA FOWLERI” (Wisconsin Alumni Research Foundation, priority 2023, published 2025).

The structures appear in SMILES notation. A value given as a limit tells only on which side of the number the result lay.

One assay concerns N. fowleri strain Nf69 (ATCC 30215) trophozoites. Put plainly: Determination of EC50 values against Naegleria fowleri (growth inhibition, CellTiter Glo, 48 h). Conditions: ATCC30215, 48 h, read-out: EC50 uM against N. fowleri. The class given is cell-based. Here is the method:
N. fowleri strain Nf69 (ATCC 30215) trophozoites were cultured axenically. Amoeba were seeded at […] in 100 μL of the indicated medium in white TC-treated 96-well plates (Thermo Scientific Nunc Microwell 136101). Cells were seeded into Nelson's Complete Media (NCM, 0.17% liver infusion broth (BD Difco, Franklin Lakes, NJ), 0.17% glucose, 0.012% sodium chloride, 0.0136% potassium phosphate monobasic, 0.0142% sodium phosphate dibasic, 0.0004% calcium chloride, 0.0002% magnesium sulfate, 10% heat-inactivated fetal bovine serum (FBS), 1% penicillin-streptomycin) at 37° C. in 96-well tissue culture plates. Vehicle or compound at concentrations initially ranging from 20 to 0.375 μM were added to cells, followed by culture for 48 h (37° C., 5% CO2). Plates were equilibrated to rt for 15 min and CellTiter Glo reagent was added followed by orbital shaking for 2 min. After an additional incubation (rt, 10 min), luminescence was scored on a BioTek Synergy H1 microplate reader. Luminescence values were used to calculate percent cell growth inhibition (based on controls) for each concentration of compound tested. Averages of triplicates were calculated and fit to dose-response curves for the determination of EC50 values, using Prism 9.0 (GraphPad Software, San Diego, CA). […] Other controls included media alone, cells and media, and vehicle and media. For very potent compounds, concentration of reagent in the dose-response assays were reduced to provide an appropriate range for EC50 value resolution.
Compounds of the present technology were tested for growth inhibition of N. fowleri per General Procedure 13, above.
Background: In ATP-based viability assays light output follows the ATP content of the culture.
In the case of `CN1CCC[C@H]2c3nc4cc(Cl)c(Cl)cc4c(=O)n3CC[C@@H]21` [trans-10f-ent-2, (4aS,13bR)-10,11-dichloro-4-methyl-1,2,3,4,4a,5,6,13b-octahydro-8H-[1,6]naphthyridino[5,6-b]quinazolin-8-one], the EC50 – broadly, the concentration at which the effect is half-maximal – lay in the range of 1 to 10 µM. Regarding `CN1CCC[C@H]2c3nc4ccc(C(F)(F)F)cc4c(=O)n3CC[C@@H]21` [trans-10d-ent-2, (4aS,13bR)-4-methyl-10-(trifluoromethyl)-1,2,3,4,4a,5,6,13b-octahydro-8H-[1,6]naphthyridino[5,6-b]quinazolin-8-one], the EC50 lay in the range of 1 to 10 µM.

Still in this assay, the particulars now being: ATCC30215, N. fowleri Nf69 trophozoites, 48 h culture, 37° C., CellTiter Glo luminescence, read-out: EC50 uM against N. fowleri.
Consider `COCCn1c([C@@H]2CCCN(CC3COC3)C2)nc2cc(Cl)c(Cl)cc2c1=O` [Compound R-14k, (R)-6,7-dichloro-3-(2-methoxyethyl)-2-(1-(oxetan-3-ylmethyl)piperidin-3-yl)quinazolin-4(3H)-one], for which the EC50 is > 10 µM. Same read-out and setting: the result for `CN1CCC[C@H]2c3nc4cc(-c5ccccc5)c(Cl)cc4c(=O)n3CC[C@H]21` (racemic) [cis-9b, (±)-(4aR,13bR)-10-chloro-4-methyl-11-phenyl-1,2,3,4,4a,5,6,13b-octahydro-8H-[1,6]naphthyridino[5,6-b]quinazolin-8-one] reads 1 to 10 µM; that for `CN1CCC[C@@H]2c3nc4cc(Cl)c(C(F)(F)F)cc4c(=O)n3CC[C@H]21` (racemic) [trans-5s, (±)-(4aR,13bS)-11-chloro-4-methyl-10-(trifluoromethyl)-1,2,3,4,4a,5,6,13b-octahydro-8H-[1,6]naphthyridino[5,6-b]quinazolin-8-one], 0.1 to 1 µM; that for `CC(C)(C)c1ccc(CN2CCC[C@@H]3c4nc5cc(Cl)c(Cl)cc5c(=O)n4CC[C@H]32)cc1` (racemic) [trans-7s, (±)-(4aR,13bS)-4-(4-(tert-butyl)benzyl)-10,11-dichloro-1,2,3,4,4a,5,6,13b-octahydro-8H-[1,6]naphthyridino[5,6-b]quinazolin-8-one], > 10 µM. For the compound `O=c1c2cc(Cl)c(Cl)cc2nc2n1CC[C@@H]1[C@@H]2CCCN1CC1COC1` (racemic) [trans-7m, (±)-(4aR,13bS)-10,11-dichloro-4-(oxetan-3-ylmethyl)-1,2,3,4,4a,5,6,13b-octahydro-8H-[1,6]naphthyridino[5,6-b]quinazolin-8-one], the EC50 lay in the range of 0.0001 to 0.1 µM. On the same count and under the same terms, the same measure for `CN1CCC[C@@H]2c3nc4cccc(Cl)c4c(=O)n3CC[C@H]21` (racemic) [trans-5c, (±)-(4aR,13bS)-9-chloro-4-methyl-1,2,3,4,4a,5,6,13b-octahydro-8H-[1,6]naphthyridino[5,6-b]quinazolin-8-one]: > 10 µM; for `O=c1c2cc(Cl)ccc2nc2n1CC[C@H]1NCCC[C@H]21` (racemic) [trans-6a, (±)-(4aR,13bS)-10-chloro-1,2,3,4,4a,5,6,13b-octahydro-8H-[1,6]naphthyridino[5,6-b]quinazolin-8-one]: 1 to 10 µM. As for `Cn1c([C@@H]2CCCN(CCO)C2)nc2cc(Cl)c(Cl)cc2c1=O` [Compound R-14z, (R)-6,7-dichloro-2-(1-(2-hydroxyethyl)piperidin-3-yl)-3-methylquinazolin-4(3H)-one], the EC50 was > 10 µM. For the compound `CC(C)N1CCC[C@@H]2c3nc4cc(Cl)c(Cl)cc4c(=O)n3CC[C@H]21` (racemic) [trans-7a, (±)-(4aR,13bS)-10,11-dichloro-4-isopropyl-1,2,3,4,4a,5,6,13b-octahydro-8H-[1,6]naphthyridino[5,6-b]quinazolin-8-one], the EC50 lay in the range of 0.0001 to 0.1 µM.

Turning to `COc1ccc2nc([C@@H]3CCCN(CC4COC4)C3)n(C)c(=O)c2c1` [Compound R-14s, (R)-6-methoxy-3-methyl-2-(1-(oxetan-3-ylmethyl)piperidin-3-yl)quinazolin-4(3H)-one], the EC50 was > 10 µM. Turning to `CCN1CCC[C@H]2c3nc4ccccc4c(=O)n3CC[C@H]21` (racemic) [cis-5z, (±)-(4aR,13bR)-4-ethyl-1,2,3,4,4a,5,6,13b-octahydro-8H-[1,6]naphthyridino[5,6-b]quinazolin-8-one], the EC50 was > 10 µM.

For `Cn1c([C@@H]2CCN(CC3COC3)C2)nc2cc(Cl)c(Cl)cc2c1=O` [Compound R-14j, (R)-6,7-dichloro-3-methyl-2-(1-(oxetan-3-ylmethyl)pyrrolidin-3-yl)quinazolin-4(3H)-one], the EC50 is 1 to 10 µM. With `O=C(N1CCOCC1)N1CCC[C@@H]2c3nc4cc(Cl)c(Cl)cc4c(=O)n3CC[C@H]21` (racemic) [trans-7f, (±)-(4aR,13bS)-10,11-dichloro-4-(morpholine-4-carbonyl)-1,2,3,4,4a,5,6,13b-octahydro-8H-[1,6]naphthyridino[5,6-b]quinazolin-8-one], the 50% effective concentration (EC50) is > 10 µM. As for `O=c1c2cc(Cl)c(Cl)cc2nc2n1CC[C@@H]1[C@@H]2CCCN1Cc1cccnc1` (racemic) [trans-7bb, (±)-(4aR,13bS)-10,11-dichloro-4-(pyridin-3-ylmethyl)-1,2,3,4,4a,5,6,13b-octahydro-8H-[1,6]naphthyridino[5,6-b]quinazolin-8-one], the EC50 is 0.0001 to 0.1 µM. Turning to `COc1cc2nc3n(c(=O)c2cc1OC)CC[C@@H]1[C@@H]3CCCN1C` (racemic) [trans-5r, (±)-(4aR,13bS)-10,11-dimethoxy-4-methyl-1,2,3,4,4a,5,6,13b-octahydro-8H-[1,6]naphthyridino[5,6-b]quinazolin-8-one], the EC50 is > 10 µM. Same read-out and setting: the result for `CC(C)CN1CCC[C@@H](c2nc3cc(Cl)c(Cl)cc3c(=O)n2C)C1` [Compound R-14g, (R)-6,7-dichloro-2-(1-isobutylpiperidin-3-yl)-3-methylquinazolin-4(3H)-one] reads > 10 µM; that for `Cn1c([C@@H]2CCCN(CC3COC3)C2)nc2cc(Cl)c(Cl)cc2c1=O` [Compound R-14f, (R)-6,7-dichloro-3-methyl-2-(1-(oxetan-3-ylmethyl)piperidin-3-yl)quinazolin-4(3H)-one], 0.1 to 1 µM.

As for `N#Cc1ccc(CN2CCC[C@@H]3c4nc5cc(Cl)c(Cl)cc5c(=O)n4CC[C@H]32)cc1` (racemic) [trans-7r, (±)-(4-(((4aR,13bS)-10,11-dichloro-8-oxo-2,3,5,6,8,13b-hexahydro-1H-[1,6]naphthyridino[5,6-b]quinazolin-4(4aH)-yl)methyl)benzonitrile], the EC50 is > 10 µM.

For the compound `CN1CCC[C@@H]2c3nc4ccc(C#N)cc4c(=O)n3CC[C@H]21` (racemic) [trans-5i, (±)-(4aR,13bS)-4-methyl-8-oxo-2,3,4,4a,5,6,8,13b-octahydro-1H-[1,6]naphthyridino[5,6-b]quinazoline-10-carbonitrile], the EC50 was 0.1 to 1 µM. For `COc1cc2nc3n(c(=O)c2cc1OC)CC[C@@H]1[C@H]3CCCN1C` (racemic) [cis-5r, (±)-(4aR,13bR)-10,11-dimethoxy-4-methyl-1,2,3,4,4a,5,6,13b-octahydro-8H-[1,6]naphthyridino[5,6-b]quinazolin-8-one], the EC50 is > 10 µM. As to `O=c1c2cc(Cl)c(Cl)cc2nc2n1CC[C@H]1NCCC[C@H]21` (racemic) [trans-6b, (±)-(4aR,13bS)-10,11-dichloro-1,2,3,4,4a,5,6,13b-octahydro-8H-[1,6]naphthyridino[5,6-b]quinazolin-8-one], the half-maximal effective concentration (EC50) was in the range of 1 to 10 µM.

In the case of `COc1cc2nc3n(c(=O)c2cc1Cl)CC[C@@H]1[C@@H]3CCCN1CC(C)C` (single isomer, unassigned) [trans-10g-ent-1], the EC50 fell in the range of 0.1 to 1 µM. For the compound `O=C(C1CCOCC1)N1CCC[C@@H]2c3nc4cc(Cl)c(Cl)cc4c(=O)n3CC[C@H]21` (racemic) [trans-7e, (±)-(4aR,13bS)-10,11-dichloro-4-(tetrahydro-2H-pyran-4-carbonyl)-1,2,3,4,4a,5,6,13b-octahydro-8H-[1,6]naphthyridino[5,6-b]quinazolin-8-one], the EC50 is > 10 µM. Still for that read-out and setting: the result for `Cn1c([C@@H]2CCCN(CC3COC3)C2)nc2ccc(C(F)(F)F)cc2c1=O` [Compound R-14t, (R)-3-methyl-2-(1-(oxetan-3-ylmethyl)piperidin-3-yl)-6-(trifluoromethyl)quinazolin-4(3H)-one] reads > 10 µM.

For the compound `COc1cc2nc3n(c(=O)c2cc1Cl)CC[C@@H]1[C@@H]3CCCN1Cc1cccnc1` (racemic) [trans-7ii, (±)-(4aR,13bS)-10-chloro-11-methoxy-4-(pyridin-3-ylmethyl)-1,2,3,4,4a,5,6,13b-octahydro-8H-[1,6]naphthyridino[5,6-b]quinazolin-8-one], the EC50 was 0.1 to 1 µM. For the compound `COc1cc2nc3n(c(=O)c2cc1Cl)CC[C@H]1[C@H]3CCCN1CC(C)C` (single isomer, unassigned) [trans-10h-ent-2], the concentration for a half-maximal effect (EC50) fell in the range of 0.0001 to 0.1 µM.

Take `CN1CCC[C@@H]2c3nc4cnccc4c(=O)n3CC[C@H]21` (racemic) [trans-5p, (±)-(4aR,13bS)-4-methyl-1,2,3,4,4a,5,6,13b-octahydro-8H-pyrido[3′,4′:4,5]pyrimido[2,1-f][1,6]naphthyridin-8-one]: the concentration for a half-maximal effect (EC50) is > 10 µM.
